# Patent US20130237452A1, “Screening method for selecting plants that show a reduced wound-induced surface discolouration” (RIJK ZWAAN ZAADTEELT EN ZAADHANDEL B.V., priority 2006, published 2013)
# Entries after “also recorded” stand apart in the source; their conditions may differ.
# Experiments:
# [1] = test system: germinated seeds of lettuce; test: L-DOPA assay on germinated seeds
# Protocol: Germinated seeds of lettuce were incubated with L-DOPA. […] This colour reaction can be used for screening seeds that show a reduced discolouration.
# PPO = test: L-DOPA leaf disc assay: black discolouration (melanin) at wound surface; type: cell-based, lettuce
# Protocol: In addition to assays which address wound-induced discolouration in a broad sense, the method according to this invention also allows to screen in a more specific manner for mutants which have a reduced PPO activity. A phenotypic assay which is indicative for PPO activity was developed by using leaf discs which were incubated in the presence of 1.5 mM L-DOPA. […] Furthermore, it was shown that the reaction can be inhibited by adding 1 mM L-cysteine during the reaction (FIG. 5). Therefore, this assay enabled the identification of mutants which are modified in the ability to mount a PPO activity at a wound surface of a leaf. The response of lettuce leaf discs to the presence of L-DOPA can be observed both in solution as well as between wetted filter papers as shown in FIG. 13.
# seeds of eggplant = test: L-DOPA assay on seeds
# Protocol: (§1) Seeds of lettuce and eggplant were incubated with 0, 2.5 and 5 mM L-DOPA. […] The response is PPO-dependent because it can be inhibited with L-cysteine.
# seeds of lettuce = test: L-DOPA assay on seeds
# Protocol: as §1
# lettuce leaf discs = test: leaf disc pinking assay: wound-induced pink discolouration between wetted filter papers; type: cell-based; conditions: for effect on formation of the pink dye (pinking response): applied during the reaction; for concentration at which the pink discolouration was completely inhibited: applied during the assay, 5° C. for 7 days
# Protocol: A phenotypic assay was developed in which leaf discolouration of lettuce induced by wounding can readily be assessed. This approach allows young plant screening for discolouration. Leaf discs of 5 mm diameter were taken from young or mature plants and placed between wetted filter papers in a tray. The system was incubated at 5° C. for 7 days. During the incubation a pink dye developed at the wound site of the leaf disc which became clearly visible as a printed circle on the filter paper (FIG. 2).
# lettuce seeds = test: catechol assay on seeds
# Protocol: Lettuce seeds were incubated with 0, 100, 250, 500, 750 and 1000 mg/L catechol.
# [2] = test system: field-grown lettuce plant showing severe pinking symptoms; test: pinking of leaf discs from field-grown lettuce; conditions: 1 mM, approximately 30 minutes at room temperature
# Protocol: This is typically observed when plants have been stressed, for example by conditions of severe water logging. The leaf was used to prepare leaf discs which were incubated immediately by 1 mM L-cysteine.
# [3] = treatment of melanin formed in the L-DOPA assay after the response was completed; parameters: species or system lettuce; conditions: added after the response was completed; 0-10 mM series
# Protocol: (§2) As L-cysteine is known to react with o-quinones, which are PPO products, by converting them back into colourless diphenols, the effects of L-cysteine on the pink dye coming from lettuce leaf discs was determined. In parallel the effect of L-cysteine was determined on the melanin formation upon incubation with L-DOPA. Leaf discs were taken and incubated according to the procedures described above. After the wound response was completed, a concentration series of L-cysteine was added to the leaf disc and the change in colour was monitored.
# [4] = test system: lettuce outer leaf midrib tissue discs; test: midrib disc / cut leaf browning assay; type: cell-based
# Protocol: A further embodiment of this invention is based on the following experiment. Parts of a lettuce leaf of a head are produced by cutting and incubated at 16° C. in air. As a response the wound surface turns brown after approximately 4 days. Especially at the wound surface of the main vein the browning can clearly be observed. Furthermore, the browning reaction can also be observed at the whole plant level upon damaging leaves by cutting or abrasion. Lettuce plants were grown to maturity and parts of outer leaves were taken by cutting discs from the rib tissue. The discs were incubated on wetted filter paper at 16° C. After approximately 72 hours, the wound surface had turned brown.
# leaf discs of lettuce = test: chlorogenic acid assay on leaf discs; type: cell-based
# Protocol: Leaf discs of lettuce were incubated with 10 mM chlorogenic acid on filter paper.
# [5] = treatment of the formed pink dye after the wound response was completed; parameters: species or system lettuce; conditions: added after the wound response was completed; 0-10 mM series for L-cysteine
# Protocol: as §2
smiles,measurement,setting,value
"N[C@@H](Cc1ccc(O)c(O)c1)C(=O)O [L-DOPA, L-3,4-dihydroxyphenylalanine]",colour reaction of seed coat and root zone with the substrate,[1],show a colour reaction
same,discolouration at the wound surface on incubation with the substrate,PPO; 1.5 mM L-DOPA,dark brown to black discolouration
same,colour reaction of seeds with the substrate,"seeds of eggplant; 0, 2.5 and 5 mM",concentration dependent
same,colour reaction of seeds with the substrate,"seeds of lettuce; 0, 2.5 and 5 mM",concentration dependent
C[C@H](N)C(=O)O [L-alanine],effect on formation of the pink dye (pinking response),lettuce leaf discs,did not show any effect
N[C@@H](CS)C(=O)O [L-cysteine],effect on catechol colour response of seeds,lettuce seeds,inhibited
same,effect on pink discolouration of field-grown leaf material,[2],pink discolouration disappeared; also recorded: eliminated
same,effect on already formed black melanin,[3],not affected
same,effect on black L-DOPA discolouration,PPO; applied simultaneously with L-DOPA,completely inhibited
same,effect on L-DOPA colour response of seeds,seeds of eggplant,inhibited
same,effect on L-DOPA colour response of seeds,seeds of lettuce,inhibited
same,concentration at which the pink discolouration was completely inhibited,lettuce leaf discs,≥ 0.001%
same,effect on formation of the pink dye (pinking response),lettuce leaf discs,strongly suppressed
same,effect on browning response of midrib discs,"[4]; 10 mM, 16° C., approximately 72 hours",inhibited
same,"effect on wound-induced browning reactions (cut leaf parts, whole plant)","[4]; 16° C. in air, concentration not given",completely be inhibited
same,effect on chlorogenic acid induced colour,leaf discs of lettuce; added to discs incubated with 10 mM chlorogenic acid,the colour disappeared again
same,effect on the already formed pink dye,[5],converting the pink dye back into a colourless compound; also recorded: converted into a colourless compound
CC(C)C[C@H](N)C(=O)O [L-leucine],effect on formation of the pink dye (pinking response),lettuce leaf discs,did not show any effect
O=C1O[C@H]([C@@H](O)CO)C(O)=C1O [ascorbic acid],effect on the already formed pink dye,[5],convert the pink dye into a colourless compound
Oc1ccccc1O [catechol],colour response of seeds with the substrate,"lettuce seeds; 0, 100, 250, 500, 750 and 1000 mg/L",concentration dependent colour response
O=C(/C=C/c1ccc(O)c(O)c1)O[C@@H]1C[C@](O)(C(=O)O)C[C@@H](O)[C@H]1O [chlorogenic acid],discolouration of discs on incubation with the substrate,leaf discs of lettuce; 10 mM on filter paper,browning
O=CC=Cc1ccccc1 [cinnamaldehyde],concentration at which the pink discolouration was completely inhibited,lettuce leaf discs,≥ 0.01%
same,effect on formation of the pink dye (pinking response),lettuce leaf discs,inhibited
N[C@@H](CCC(=O)N[C@@H](CS)C(=O)NCC(=O)O)C(=O)O [glutathion],effect on the already formed pink dye,[5],convert the pink dye into a colourless compound
